Measured values as given in publication PMC9851200, “Multiparameter phenotypic screening for endogenous TFEB and TFE3 translocation identifies novel chemical series modulating lysosome function” (Autophagy, 2022).

Experiments:
[1] = target: kinases (KINOMEscan panel) (Homo sapiens, UniProt O14733); type: binding
[2] = target: kinases (KINOMEscan panel) (Homo sapiens, UniProt P07947); type: binding
[3] = target: kinases (KINOMEscan panel) (Homo sapiens, UniProt Q32MK0); type: binding
[4] = target: kinases (KINOMEscan panel) (Homo sapiens, UniProt Q16620); type: binding
[5] = target: kinases (KINOMEscan panel) (Homo sapiens, UniProt Q16288); type: binding
[6] = target: kinases (KINOMEscan panel) (Homo sapiens, UniProt Q13153); type: binding
[7] = target: kinases (KINOMEscan panel) (Homo sapiens, UniProt Q16659); type: binding
[8] = target: kinases (KINOMEscan panel) (Homo sapiens, UniProt P46734); type: binding
[9] = target: kinases (KINOMEscan panel) (Homo sapiens, UniProt Q8WU08); type: binding
[10] = target: kinases (KINOMEscan panel) (Homo sapiens, UniProt Q9Y2H1); type: binding
[11] = target: kinases (KINOMEscan panel) (Homo sapiens, UniProt P08581); type: binding
[12] = target: kinases (KINOMEscan panel) (Homo sapiens, UniProt Q6P2M8); type: binding
[13] = target: kinases (KINOMEscan panel) (Homo sapiens, UniProt Q8TD08); type: binding
[14] = target: kinases (KINOMEscan panel) (Homo sapiens, UniProt P28482); type: binding
[15] = target: kinases (KINOMEscan panel) (Homo sapiens, UniProt Q92918); type: binding
[16] = target: kinases (KINOMEscan panel) (Homo sapiens, UniProt O00506); type: binding
[17] = target: kinases (KINOMEscan panel) (Homo sapiens, UniProt P45983); type: binding
[18] = target: kinases (KINOMEscan panel) (Homo sapiens, UniProt Q15208); type: binding
[19] = target: kinases (KINOMEscan panel) (Homo sapiens, UniProt Q9H2G2); type: binding
[20] = target: kinases (KINOMEscan panel) (Homo sapiens, UniProt P45985); type: binding
[21] = test system: GFP-Ex1HTT74Q; experiment: HTT aggregation assay, PC12 cells expressing GFP-Ex1HTT74Q; type: cell-based; conditions: 48 h, 16 nM - 2 µM
Experimental: PC12 cells stably expressing GFP-tagged exon 1 of HTT with a 74-repeat polyglutamine-expansion (GFP-Ex1HTT74Q) under tetracycline-inducible promoter control [41]were maintained at 37°C and 5% CO2 in RPMI medium (Sigma Aldrich, R8758) supplemented with 10% horse serum (Sigma Aldrich, H1138), 5% fetal bovine serum, 1% Glutamine (Sigma Aldrich, G7513), 1% Pen-Strep (Sigma, P0781), 0.1 mg/mL G418 (ThermoFisher, 10,131,035), and 0.07 mg/mL hygromycin B (ThermoFisher, 10,687,010). Cells were plated at a density of 10,000 per well in 96-well black cycloolefin thin-bottom plates (Perkin Elmer, 6,055,300) coated with collagen IV (Sigma Aldrich, C5533). After 5 h, expression of GFP-Ex1HttQ74 was induced with doxycycline (100 ng/mL; Sigma Aldrich, D3447). After 16 h of induction, compounds (final concentrations 16 nM – 2 µM) were added in fresh medium with doxycycline (100 ng/ml). Final concentration of DMSO (Sigma Aldrich, D8418) was 0.1% in all wells. After 48 h of incubation in the presence of compound, cells were washed once in PBS and fixed with 4% paraformaldehyde (Thermofisher Scientific, 28,908) supplemented with 10 µg/mL Hoechst 33,342 (ThermoFisher Scientific, H3570) for 15 min. […] Image feature extraction was carried out using CellProfiler software. Data aggregation, normalization and distance score calculations were carried out using StratoMineR software.

[22] = test system: TFE3; experiment: TFE3 nuclear translocation in iPSC-derived i3Neurons; type: cell-based, human; conditions: day 10
Experimental: hiPSCs were maintained under feeder-free conditions in a 37°C, 5% CO2 tissue culture incubator on tissue culture treated dishes coated with growth factor-reduced Matrigel (Corning, 354,277) and fed every 1–2 days with Essential 8 medium (Life Technologies, A1517001), as needed. Accutase ([…] Technologies, 07920) was used to enzymatically dissociate hiPSCs into single cells, and 0.5 mM EDTA was used for routine dissociation to maintain colony growth. To promote cell survival during passaging, cells were passaged with the ROCK/p160-Rho-associated coiled coil kinase inhibitor Y-27632 ([…]; Selleckchem, S1049). hiPSC-derived i^3Neurons were induced and differentiated according to Fernandopulle et al. and replated on high-content 96-well dishes (PerkinElmer, CellCarrierUltra-96) by day 3. […]
After the required compound incubation, media was removed from the wells and the cells were fixed in 4% paraformaldehyde (PFA; ThermoFisher Scientific/Pierce, 28,908) for 20 min. […] The Harmony image analysis software (Perkin Elmer) was used to identify nuclei TFEB or TFE3 positive nuclei, expressed as a percentage of total cell number (See Figure S2 and S3 for analysis protocols). Mean values and standard deviation of DMSO control wells on the plate were calculated. […]

kinases (KINOMEscan panel) (Homo sapiens, UniProt Q6P2M8), sequence (Q6P2M8 whole entry): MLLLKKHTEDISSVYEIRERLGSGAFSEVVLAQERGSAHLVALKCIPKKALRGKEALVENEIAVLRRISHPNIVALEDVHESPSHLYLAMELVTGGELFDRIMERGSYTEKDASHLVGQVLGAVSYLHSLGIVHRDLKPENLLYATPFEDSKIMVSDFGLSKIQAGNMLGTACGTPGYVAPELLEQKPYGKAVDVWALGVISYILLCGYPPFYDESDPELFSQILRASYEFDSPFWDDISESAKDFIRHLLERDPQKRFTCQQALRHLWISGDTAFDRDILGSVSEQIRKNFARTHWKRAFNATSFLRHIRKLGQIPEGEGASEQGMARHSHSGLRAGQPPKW
kinases (KINOMEscan panel) (Homo sapiens, UniProt P45983), sequence (P45983 whole entry): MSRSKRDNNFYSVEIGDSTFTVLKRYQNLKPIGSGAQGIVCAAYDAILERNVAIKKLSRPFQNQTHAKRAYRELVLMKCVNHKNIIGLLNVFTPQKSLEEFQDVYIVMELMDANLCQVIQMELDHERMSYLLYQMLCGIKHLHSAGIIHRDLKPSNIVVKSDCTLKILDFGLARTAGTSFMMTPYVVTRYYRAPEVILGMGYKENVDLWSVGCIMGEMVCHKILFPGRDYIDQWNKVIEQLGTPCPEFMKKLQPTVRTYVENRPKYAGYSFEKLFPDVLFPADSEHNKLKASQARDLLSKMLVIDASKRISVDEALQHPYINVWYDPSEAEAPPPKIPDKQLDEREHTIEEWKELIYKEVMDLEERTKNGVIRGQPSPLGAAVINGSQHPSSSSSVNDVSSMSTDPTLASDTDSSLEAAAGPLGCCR
kinases (KINOMEscan panel) (Homo sapiens, UniProt P28482), sequence (P28482 whole entry): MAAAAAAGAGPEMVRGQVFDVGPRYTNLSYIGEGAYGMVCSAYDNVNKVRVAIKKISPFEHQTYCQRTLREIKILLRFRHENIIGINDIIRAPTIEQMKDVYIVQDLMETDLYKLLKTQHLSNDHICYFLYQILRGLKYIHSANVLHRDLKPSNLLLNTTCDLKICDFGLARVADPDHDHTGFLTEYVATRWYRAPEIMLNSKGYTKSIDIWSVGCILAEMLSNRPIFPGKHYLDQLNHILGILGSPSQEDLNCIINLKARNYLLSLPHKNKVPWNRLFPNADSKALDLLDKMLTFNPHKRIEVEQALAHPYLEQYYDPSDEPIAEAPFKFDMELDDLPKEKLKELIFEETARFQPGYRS
kinases (KINOMEscan panel) (Homo sapiens, UniProt Q15208), sequence (Q15208 whole entry): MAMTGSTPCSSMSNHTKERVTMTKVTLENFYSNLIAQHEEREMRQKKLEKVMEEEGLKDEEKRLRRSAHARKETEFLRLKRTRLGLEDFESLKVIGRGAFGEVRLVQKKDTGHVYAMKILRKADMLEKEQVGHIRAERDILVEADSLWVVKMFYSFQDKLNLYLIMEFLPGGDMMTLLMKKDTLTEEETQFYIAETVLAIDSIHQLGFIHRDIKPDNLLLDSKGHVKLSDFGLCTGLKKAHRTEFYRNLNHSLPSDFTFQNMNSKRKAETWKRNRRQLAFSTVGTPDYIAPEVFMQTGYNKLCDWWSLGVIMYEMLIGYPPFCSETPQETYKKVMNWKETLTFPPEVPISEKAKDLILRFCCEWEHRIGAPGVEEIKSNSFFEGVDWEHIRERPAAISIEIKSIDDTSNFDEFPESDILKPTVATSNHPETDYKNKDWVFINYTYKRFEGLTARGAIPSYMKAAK
kinases (KINOMEscan panel) (Homo sapiens, UniProt Q16288), sequence (Q16288 32-839): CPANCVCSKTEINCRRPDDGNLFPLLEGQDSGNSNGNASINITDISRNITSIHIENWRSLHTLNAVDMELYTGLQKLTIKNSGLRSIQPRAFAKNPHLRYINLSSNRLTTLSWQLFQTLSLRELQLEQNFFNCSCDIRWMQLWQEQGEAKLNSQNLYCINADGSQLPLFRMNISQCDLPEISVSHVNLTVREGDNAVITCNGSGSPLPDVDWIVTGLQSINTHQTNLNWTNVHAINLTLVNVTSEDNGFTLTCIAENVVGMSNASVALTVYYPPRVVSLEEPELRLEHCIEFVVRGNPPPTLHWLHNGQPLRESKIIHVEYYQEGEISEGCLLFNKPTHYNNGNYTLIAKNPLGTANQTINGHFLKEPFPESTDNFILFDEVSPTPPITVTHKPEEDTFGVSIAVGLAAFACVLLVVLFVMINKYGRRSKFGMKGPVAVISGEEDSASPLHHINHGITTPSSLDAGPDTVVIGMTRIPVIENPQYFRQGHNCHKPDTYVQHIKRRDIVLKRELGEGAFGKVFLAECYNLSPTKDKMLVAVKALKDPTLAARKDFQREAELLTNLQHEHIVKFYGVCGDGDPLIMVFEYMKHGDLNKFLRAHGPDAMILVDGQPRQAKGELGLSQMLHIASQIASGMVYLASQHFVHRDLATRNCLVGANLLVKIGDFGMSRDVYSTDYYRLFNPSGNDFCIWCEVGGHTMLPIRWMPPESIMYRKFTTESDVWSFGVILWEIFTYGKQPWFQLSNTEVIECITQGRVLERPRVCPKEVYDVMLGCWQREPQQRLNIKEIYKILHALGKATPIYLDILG
kinases (KINOMEscan panel) (Homo sapiens, UniProt P46734), sequence (P46734 whole entry): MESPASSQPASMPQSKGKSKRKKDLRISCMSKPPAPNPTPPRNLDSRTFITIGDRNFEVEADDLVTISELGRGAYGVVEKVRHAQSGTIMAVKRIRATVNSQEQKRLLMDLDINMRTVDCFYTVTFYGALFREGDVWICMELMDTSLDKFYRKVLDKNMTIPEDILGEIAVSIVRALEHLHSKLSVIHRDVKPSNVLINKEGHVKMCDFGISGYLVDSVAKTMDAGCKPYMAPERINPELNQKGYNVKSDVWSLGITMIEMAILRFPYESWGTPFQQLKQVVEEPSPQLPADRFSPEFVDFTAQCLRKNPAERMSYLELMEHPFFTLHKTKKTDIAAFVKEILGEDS
kinases (KINOMEscan panel) (Homo sapiens, UniProt Q16659), sequence (Q16659 whole entry): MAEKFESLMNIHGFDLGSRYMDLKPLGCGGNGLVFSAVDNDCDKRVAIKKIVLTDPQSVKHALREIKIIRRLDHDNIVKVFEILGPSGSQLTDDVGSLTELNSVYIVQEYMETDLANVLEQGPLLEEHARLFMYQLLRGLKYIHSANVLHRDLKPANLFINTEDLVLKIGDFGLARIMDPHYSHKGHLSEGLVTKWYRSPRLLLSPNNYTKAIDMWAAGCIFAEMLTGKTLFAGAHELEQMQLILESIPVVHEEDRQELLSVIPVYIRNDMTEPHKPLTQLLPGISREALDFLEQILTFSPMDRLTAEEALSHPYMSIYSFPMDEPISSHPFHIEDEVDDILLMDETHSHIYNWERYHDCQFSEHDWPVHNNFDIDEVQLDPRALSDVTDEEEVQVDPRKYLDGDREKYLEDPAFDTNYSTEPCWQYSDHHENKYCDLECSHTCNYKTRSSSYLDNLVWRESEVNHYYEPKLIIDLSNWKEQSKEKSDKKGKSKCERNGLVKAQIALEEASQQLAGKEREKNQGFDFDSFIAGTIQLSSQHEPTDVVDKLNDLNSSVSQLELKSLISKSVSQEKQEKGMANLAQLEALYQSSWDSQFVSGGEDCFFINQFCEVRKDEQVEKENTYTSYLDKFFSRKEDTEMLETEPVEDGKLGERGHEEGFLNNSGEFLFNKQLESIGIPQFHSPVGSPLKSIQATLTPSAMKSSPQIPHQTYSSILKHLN
kinases (KINOMEscan panel) (Homo sapiens, UniProt O00506), sequence (O00506 whole entry): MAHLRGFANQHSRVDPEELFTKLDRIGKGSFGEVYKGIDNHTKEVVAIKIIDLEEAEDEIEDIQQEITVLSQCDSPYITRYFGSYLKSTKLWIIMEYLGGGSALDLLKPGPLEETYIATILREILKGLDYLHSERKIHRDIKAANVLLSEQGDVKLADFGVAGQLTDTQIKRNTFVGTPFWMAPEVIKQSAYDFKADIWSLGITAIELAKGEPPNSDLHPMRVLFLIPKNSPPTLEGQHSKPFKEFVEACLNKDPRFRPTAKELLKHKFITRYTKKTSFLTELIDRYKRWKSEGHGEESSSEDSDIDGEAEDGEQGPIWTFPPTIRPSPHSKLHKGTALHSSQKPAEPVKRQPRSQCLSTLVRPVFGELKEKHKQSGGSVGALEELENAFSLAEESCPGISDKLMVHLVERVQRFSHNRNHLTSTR
kinases (KINOMEscan panel) (Homo sapiens, UniProt Q92918), sequence (Q92918 whole entry): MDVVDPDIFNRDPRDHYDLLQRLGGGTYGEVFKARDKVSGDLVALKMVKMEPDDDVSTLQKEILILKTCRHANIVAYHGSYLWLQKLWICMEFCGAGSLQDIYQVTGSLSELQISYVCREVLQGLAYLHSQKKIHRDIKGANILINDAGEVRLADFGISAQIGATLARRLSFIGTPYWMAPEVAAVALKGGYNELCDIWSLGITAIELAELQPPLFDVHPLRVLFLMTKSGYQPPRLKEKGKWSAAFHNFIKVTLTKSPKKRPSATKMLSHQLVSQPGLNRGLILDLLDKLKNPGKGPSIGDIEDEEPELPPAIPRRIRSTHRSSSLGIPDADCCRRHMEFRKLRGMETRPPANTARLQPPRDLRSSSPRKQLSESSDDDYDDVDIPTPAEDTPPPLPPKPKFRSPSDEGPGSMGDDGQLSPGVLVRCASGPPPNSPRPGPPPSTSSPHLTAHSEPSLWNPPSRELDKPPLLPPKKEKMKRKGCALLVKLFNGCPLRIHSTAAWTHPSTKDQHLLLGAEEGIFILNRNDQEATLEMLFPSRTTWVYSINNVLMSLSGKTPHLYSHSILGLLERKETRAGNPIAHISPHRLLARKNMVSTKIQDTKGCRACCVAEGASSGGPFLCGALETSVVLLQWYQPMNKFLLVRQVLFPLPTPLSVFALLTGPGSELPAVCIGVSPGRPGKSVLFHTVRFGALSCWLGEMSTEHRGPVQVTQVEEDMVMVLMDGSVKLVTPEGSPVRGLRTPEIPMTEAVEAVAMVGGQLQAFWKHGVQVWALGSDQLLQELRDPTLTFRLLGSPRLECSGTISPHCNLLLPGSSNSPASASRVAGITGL

Compound: Cc1cccc(-c2nc(N(C)c3ccc4ncsc4c3)c3ccccc3n2)n1 [NK-161]
- KINOMEscan MAP2K7/MKK7 [1]: 0
- KINOMEscan YES1/YES [2]: 0
- KINOMEscan MYLK/MLCK [3]: 8
- KINOMEscan NTRK2/TRKB [4]: 45
- KINOMEscan NTRK3/TRKC [5]: 29
- KINOMEscan PKN1/PAK1 [6]: 0
- KINOMEscan MAPK6/ERK3 [7]: 14
- KINOMEscan MAP2K3/MEK3 [8]: 0
- KINOMEscan STK32A/YANK1 [9]: 0
- KINOMEscan STK38L/NDR2 [10]: 0
- KINOMEscan SLTM/MET [11]: 11
- KINOMEscan PNCK/CAMK1B [12]: 0
- KINOMEscan MAPK15/ERK8 [13]: 0
- KINOMEscan MAPK1/ERK2 [14]: 6
- KINOMEscan MAP4K1/HPK1 [15]: 0
- KINOMEscan STK25/YSK1 [16]: 2
- KINOMEscan MAPK8/JNK1 [17]: 0
- KINOMEscan NDR1/STK38 [18]: 42
- KINOMEscan FYN/SLK [19]: 4
- KINOMEscan MAP2K4/MEK4 [20]: 0

Compound: Cc1cccc(-c2nc(Nc3ccc4ncsc4c3)c3ccccc3n2)n1 [NK140]
- HTT fluorescent aggregates / cells bearing aggregates (in words) [21]: no reduction in fluorescent aggregates
- Nuclear translocation of TFE3 in i3Neurons (in words) [22]: trend toward upregulation of TFE3 translocation
